In paper PMC5733122, “Purification, Characterization, and Mode of Action of Pentocin JL-1, a Novel Bacteriocin Isolated from Lactobacillus pentosus, against Drug-Resistant Staphylococcus aureus” (BioMed Research International, 2017):

What was measured:
[1] = Thermal sensitivity, residual antibacterial activity; assay type: physicochemical; settings: for Residual inhibitory activity (inhibition zone diameter, mm): 15 μg/mL in 0.05% (w/v) acetic acid, agar-well diffusion vs MRSA GIM 1.771, mean ± SD, triplicate; for Residual inhibitory activity (%): 15 μg/mL in 0.05% acetic acid, vs MRSA GIM 1.771, relative to control
Experimental: To determine thermal sensitivity, lyophilized purified pentocin JL-1 dissolved in 0.05% (w/v) acetic acid at 15 μg/mL was evaluated at different temperatures (−20°C, 4°C, 30°C, 60°C, and 100°C) for 1 h and also at the autoclaved condition (121°C at 15 psi for 15 min).
(§1) The residual antibacterial activities of the above samples were calculated using the agar-well diffusion test with MRSA GIM 1.771 as the indicator strain. […] Lyophilized pentocin JL-1 dissolved in 0.05% (w/v) acetic acid at 15 μg/mL with pH 5.5 was used as a control in all assays.

pepsin = molecular target: T1, pepsin (Sus scrofa, UniProt P00791); assay: Enzymatic sensitivity, residual antibacterial activity; assay type: in vitro ADME; settings: Pepsin 75 μg/mL (pH 1.8, 37°C), 1 h, pentocin JL-1 15 μg/mL
T1 construct: purchased Sigma-Aldrich
Experimental: (§2) To determine enzymatic sensitivity, lyophilized purified pentocin JL-1 dissolved in 0.05% (w/v) acetic acid at 15 μg/mL was treated with the following enzymes at 75 μg/mL under their respective optimum pH and temperatures: proteinase K (pH 7.5, 37°C), trypsin (pH 8.0, 37°C), pepsin (pH 2.0, 37°C), and alkaline protease (pH 8.6, 50°C) (all from Sigma-Aldrich, USA). After incubation for 1 h, the bacteriocin-enzyme mixture was boiled for 5 min to inactivate the enzymes.
as §1

alkaline protease = assay: as above; assay type: in vitro ADME; settings: 1 h
Experimental: as §2, §1

[2] = 121°C, 15 min (autoclaved, 15 psi)

T1 sequence (P00791 60-385): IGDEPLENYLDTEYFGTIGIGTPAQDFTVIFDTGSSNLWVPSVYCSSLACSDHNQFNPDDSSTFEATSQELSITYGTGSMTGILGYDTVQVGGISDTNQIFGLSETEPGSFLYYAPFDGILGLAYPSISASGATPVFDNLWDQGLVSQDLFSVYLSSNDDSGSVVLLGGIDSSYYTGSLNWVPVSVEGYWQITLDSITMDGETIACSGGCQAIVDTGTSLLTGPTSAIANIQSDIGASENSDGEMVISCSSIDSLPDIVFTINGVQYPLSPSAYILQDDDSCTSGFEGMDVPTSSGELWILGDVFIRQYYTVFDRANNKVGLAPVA

## VAKVAR [pentocin JL-1, novel bacteriocin produced by Lactobacillus pentosus JL-1, purified by four-step chromatography, molecular mass 2987.23 Da, cationic and hydrophobic peptide]
[1]; 4°C, 1 h
  Residual inhibitory activity (inhibition zone diameter, mm): 23.8 ± 1.2 mm
  Residual inhibitory activity (%): 99.58%
[1]; 30°C, 1 h
  Residual inhibitory activity (inhibition zone diameter, mm): 23.9 ± 0.2 mm
  Residual inhibitory activity (%): 100.00%
[1]; 60°C, 1 h
  Residual inhibitory activity (inhibition zone diameter, mm): 23.6 ± 0.8 mm
  Residual inhibitory activity (%): 98.74%
[1]; 100°C, 1 h
  Residual inhibitory activity (inhibition zone diameter, mm): 22.6 ± 0.8 mm
[1]; [2]
  Residual inhibitory activity (inhibition zone diameter, mm): 20.1 ± 0.9 mm
  Residual inhibitory activity (%): 84.10^∗ %
[1]; −20°C, 1 h
  Residual inhibitory activity (inhibition zone diameter, mm): 22.2 ± 1.0 mm
pepsin; then boiled 5 min, agar-well diffusion vs MRSA GIM 1.771, mean ± SD, triplicate
  Residual inhibitory activity (inhibition zone diameter, mm): 0.0 ± 0.0 mm
pepsin; vs MRSA GIM 1.771, relative to control
  Residual inhibitory activity (%): 0.00^∗ %
Alkaline protease; Alkaline protease 75 μg/mL (pH 8.6, 50°C), then boiled 5 min, pentocin JL-1 15 μg/mL, agar-well diffusion vs MRSA GIM 1.771, mean ± SD, triplicate
  Residual inhibitory activity (inhibition zone diameter, mm): 0.0 ± 0.0 mm
Alkaline protease; Alkaline protease 75 μg/mL (pH 8.6, 50°C), pentocin JL-1 15 μg/mL, vs MRSA GIM 1.771, relative to control
  Residual inhibitory activity (%): 0.00^∗ %
Alkaline protease; alkaline protease 75 μg/mL
  inhibitory action after enzyme treatment: completely abolished
